Assays:
Type in all cases: in vivo
Botrytis cinerea = test: Test E: test suspension sprayed on tomato seedlings, inoculated next day with Botrytis cinerea (tomato Botrytis); visual disease rating (100 = 100% disease control, 0 = no control; dash = not tested)
Procedure, shortened: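 Tomato seedlings were sprayed to run-off and inoculated next day with Botrytis cinerea spores. They were held 48 h at 20° C in saturated humidity, then 3 days at 24° C. Disease control was rated visually against controls (100 = full, 0 = none).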

[1] = tested on: Puccinia recondita f. sp. tritici; test: Test B: test solution sprayed on wheat seedlings, inoculated next day with Puccinia recondita f. sp. tritici (wheat leaf rust); disease rating (100 = 100% disease control, 0 = no control; dash = not tested)
Text: The resulting test suspensions were then used in Tests A-F. The test solution was sprayed to the point of run-off on wheat seedlings. […] A rating of 100 indicates 100% disease control and a rating of 0 indicates no disease control (relative to the controls). A dash (—) indicates the compound was not tested.

Phakopsora pachyrhizi = test: Test D: test solution sprayed on soybean seedlings, inoculated next day with Phakopsora pachyrhizi (Asian soybean rust); visual disease rating (100 = 100% disease control, 0 = no control; dash = not tested)
Procedure, shortened: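 Compounds predissolved in acetone (3% of final volume), suspended at ppm concentrations in 50/50 acetone/water with 250 ppm PEG400, sprayed to run-off on soybean seedlings. Inoculated next day with spores, 24 h saturated atmosphere at 22 °C, then 8 days growth chamber at 22 °C; visual rating, 100 = full control.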

[2] = tested on: Blumeria graminis f. sp. tritici; test: Test C: test suspension sprayed on wheat seedlings, inoculated next day with Blumeria graminis f. sp. tritici (wheat powdery mildew); visual disease rating (100 = 100% disease control, 0 = no control; dash = not tested)
Procedure, shortened: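 Wheat seedlings were sprayed to run-off with test suspension, then dusted next day with Blumeria graminis f. sp. tritici spores. After 8 days at 20 °C in a growth chamber, disease was rated visually as percent control relative to untreated controls.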

Zymoseptoria tritici = test: Test A: test solution sprayed on wheat seedlings, inoculated next day with Zymoseptoria tritici (wheat leaf blotch); disease rating (100 = 100% disease control, 0 = no control; dash = not tested)
Procedure, shortened: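 Wheat seedlings sprayed to run-off with test solution, inoculated next day with Z. tritici spores, held 48 h at 24° C in saturated atmosphere, then 17 days at 20° C before rating. Scores are % disease control relative to controls (100 = full control, 0 = none).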

Alternaria solani = test: Test F: test suspension sprayed on tomato seedlings, inoculated next day with Alternaria solani (tomato early blight); visual disease rating (100 = 100% disease control, 0 = no control; dash = not tested)
Procedure, shortened: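 Tomato seedlings sprayed to run-off with test suspension, inoculated next day with A. solani spores, held saturated at 27° C. for 48 h, then 20° C. for 3 days. Disease visually rated as % control relative to untreated controls.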

Row | SMILES | Test E disease control rating (Botrytis cinerea; 50 ppm) [%] | Test B disease control rating ([1]; 50 ppm) [%] | Test D disease control rating (Phakopsora pachyrhizi; 50 ppm) [%] | Test C disease control rating ([2]; 50 ppm) [%] | Test A disease control rating (Zymoseptoria tritici; 50 ppm) [%] | Test F disease control rating (Alternaria solani; 50 ppm) [%] | also measured
1 | COc1cc(OC)c(Cl)c(-c2nn(C)c(=O)c(C)c2-c2c(F)cccc2F)c1 [Compound 194, 6-(2-chloro-3,5-dimethoxyphenyl)-5-(2,6-difluorophenyl)-2,4-dimethyl-3(2H)-pyridazinone] | – | – | – | – | – | – | pest or weed control at 50 ppm (Botrytis cinerea; 50 ppm): 100%; pest or weed control at 50 ppm ([1]; 50 ppm): 100%; pest or weed control at 50 ppm (Phakopsora pachyrhizi; 50 ppm): 100%; pest or weed control at 50 ppm ([2]; 50 ppm): 100%; pest or weed control at 50 ppm (Zymoseptoria tritici; 50 ppm): 100%; pest or weed control at 50 ppm (Alternaria solani; 50 ppm): 99%
2 | CC(=O)c1c(-c2ccc(F)cc2Cl)c(-c2ccc(F)cc2Cl)nn(C)c1=O [Compound 124] | 88 | 0 | 73 | 95 | 100 | 0 | –
3 | CCn1nc(-c2c(F)cccc2F)c(-c2cc(OC)cc(OC)c2)c(Cl)c1=O [Compound 10, 4-chloro-6-(2,6-difluorophenyl)-5-(3,5-dimethoxyphenyl)-2-ethyl-3(2H)-pyridazinone] | – | – | – | – | – | – | pest or weed control at 250 ppm (Botrytis cinerea; 250 ppm): 0%; pest or weed control at 250 ppm ([1]; 250 ppm): 0%; pest or weed control at 250 ppm (Phakopsora pachyrhizi; 250 ppm): 0%; pest or weed control at 250 ppm ([2]; 250 ppm): 0%; pest or weed control at 250 ppm (Zymoseptoria tritici; 250 ppm): 0%; pest or weed control at 250 ppm (Alternaria solani; 250 ppm): 0%
4 | Cn1nc(-c2cc(F)ccc2Cl)c(-c2ccc(F)cc2Cl)c(Cl)c1=O [Compound 82] | 64 | 100 | 100 | 100 | 100 | 100 | –
5 | COc1cccc(-c2nn(C)c(=O)cc2-c2c(F)cccc2F)c1Cl [Compound 30] | – | – | – | – | – | – | Test E disease control rating (Botrytis cinerea; 250 ppm): 100%; Test B disease control rating ([1]; 250 ppm): 99%; Test D disease control rating (Phakopsora pachyrhizi; 250 ppm): 98%; Test C disease control rating ([2]; 250 ppm): 84%; Test A disease control rating (Zymoseptoria tritici; 250 ppm): 100%; Test F disease control rating (Alternaria solani; 250 ppm): 41%
6 | COc1cc(-c2nn(C)c(=O)cc2-c2ccc(F)cc2Cl)cc(OC)c1Cl [Compound 203] | 31 | 0 | 0 | 0 | 0 | 0 | –
7 | COc1ccc(-c2nn(C)c(=O)c(OC)c2-c2ccc(F)cc2Cl)c(F)c1 [Compound 166] | 95 | 91 | 0 | 79 | 100 | 67 | –
8 | COc1c(-c2ccc(F)cc2Cl)c(-c2cccc(F)c2Br)nn(C)c1=O [Compound 110] | 96 | 100 | 79 | 100 | 100 | 99 | –
9 | CCn1nc(-c2cc(OC)cc(OC)c2)c(-c2c(F)cccc2F)c(Cl)c1=O [Compound 1] | – | – | – | – | – | – | Test E disease control rating (Botrytis cinerea; 250 ppm): 90%; Test B disease control rating ([1]; 250 ppm): 55%; Test D disease control rating (Phakopsora pachyrhizi; 250 ppm): 0%; Test C disease control rating ([2]; 250 ppm): 0%; Test A disease control rating (Zymoseptoria tritici; 250 ppm): 87%; Test F disease control rating (Alternaria solani; 250 ppm): 0%
10 | CCc1c(-c2c(F)cccc2F)c(-c2cccc(OC)c2Cl)nn(C)c1=O [Compound 178] | 93 | 100 | 100 | 100 | 100 | 100 | –
11 | COc1cc(OC)cc(-c2nn(C)c(=O)cc2-c2ccc(F)cc2Cl)c1 [Compound 18] | – | – | – | – | – | – | Test E disease control rating (Botrytis cinerea; 250 ppm): 99%; Test B disease control rating ([1]; 250 ppm): 98%; Test D disease control rating (Phakopsora pachyrhizi; 250 ppm): 0%; Test C disease control rating ([2]; 250 ppm): 96%; Test A disease control rating (Zymoseptoria tritici; 250 ppm): 99%; Test F disease control rating (Alternaria solani; 250 ppm): 0%
12 | CCn1nc(-c2c(Cl)c(OC)cc(OC)c2Cl)c(-c2c(F)cccc2F)cc1=O [Compound 2] | – | – | – | – | – | – | Test E disease control rating (Botrytis cinerea; 250 ppm): 0%; Test B disease control rating ([1]; 250 ppm): 0%; Test D disease control rating (Phakopsora pachyrhizi; 250 ppm): 0%; Test C disease control rating ([2]; 250 ppm): 0%; Test A disease control rating (Zymoseptoria tritici; 250 ppm): 2%; Test F disease control rating (Alternaria solani; 250 ppm): 0%
13 | COc1ccc(Cl)c(C2=NN(C)C(=O)CC2c2c(F)cccc2F)c1 (stereo not drawn) [Compound 207] | 100 | 68 | 0 | 90 | 79 | 0 | –
14 | Cn1nc(-c2cccc(Cl)c2F)c(-c2ccc(F)cc2Cl)c(Cl)c1=O [Compound 105] | 96 | 99 | 79 | 99 | 100 | 99 | –
15 | CCOc1ccc(Cl)c(-c2nn(C)c(=O)c(C)c2-c2ccc(F)cc2Cl)c1 [Compound 175] | 98 | 100 | 100 | 99 | 100 | 100 | –
16 | Cn1nc(-c2ccccc2)c(-c2c(F)cccc2F)c(Cl)c1=O [Compound 193] | – | – | – | – | – | – | Test E disease control rating (Botrytis cinerea; 250 ppm): 100%; Test B disease control rating ([1]; 250 ppm): 100%; Test D disease control rating (Phakopsora pachyrhizi; 250 ppm): 61%; Test C disease control rating ([2]; 250 ppm): 100%; Test A disease control rating (Zymoseptoria tritici; 250 ppm): 97%; Test F disease control rating (Alternaria solani; 250 ppm): 99%
17 | COc1cc(F)cc(-c2nn(C)c(=O)c(Cl)c2-c2ccc(F)cc2Cl)c1 [Compound 76] | 97 | 100 | 99 | 99 | 100 | 99 | –
18 | COCc1c(-c2ccc(F)cc2Cl)c(-c2ccc(F)cc2Cl)nn(C)c1=O [Compound 122] | 53 | 0 | 0 | 98 | 100 | 0 | –
19 | CCc1c(-c2ccc(F)cc2Cl)c(-c2cc(OC)ccc2Cl)nn(C)c1=O [Compound 134, 5-(2-chloro-4-fluorophenyl)-6-(2-chloro-5-methoxyphenyl)-4-ethyl-2-methyl-3(2H)-pyridazinone] | – | – | – | – | – | – | pest or weed control at 50 ppm (Botrytis cinerea; 50 ppm): 98%; pest or weed control at 50 ppm ([1]; 50 ppm): 100%; pest or weed control at 50 ppm (Phakopsora pachyrhizi; 50 ppm): 96%; pest or weed control at 50 ppm ([2]; 50 ppm): 100%; pest or weed control at 50 ppm (Zymoseptoria tritici; 50 ppm): 100%; pest or weed control at 50 ppm (Alternaria solani; 50 ppm): 100%
20 | COc1cc(F)cc(-c2nn(C)c(=O)c(Cl)c2-c2ccc(F)cc2Cl)c1Br [Compound 158] | 99 | 100 | 100 | 100 | 100 | 99 | –
21 | COc1cc(C#N)cc(-c2cc(=O)n(C)nc2-c2cc(C#N)cc(OC)c2)c1 [Compound 204] | 0 | 0 | 39 | 0 | 2 | 0 | –
22 | Cc1c(-c2ccc(F)cc2Cl)c(-c2cc(F)ccc2Cl)nn(C)c1=O [Compound 128] | 98 | 100 | 99 | 100 | 100 | 100 | –
23 | COc1cc(OC)cc(-c2nn(C)c(=O)c(C)c2-c2ccc(F)cc2Cl)c1 [Compound 65] | 100 | 100 | 94 | 98 | 99 | 99 | –
24 | CCn1nc(-c2cc(OC)cc(OC)c2)c(-c2cc(OC)cc(OC)c2)cc1=O [Compound 3] | – | – | – | – | – | – | Test E disease control rating (Botrytis cinerea; 250 ppm): 0%; Test B disease control rating ([1]; 250 ppm): 0%; Test D disease control rating (Phakopsora pachyrhizi; 250 ppm): 0%; Test C disease control rating ([2]; 250 ppm): 0%; Test A disease control rating (Zymoseptoria tritici; 250 ppm): 7%; Test F disease control rating (Alternaria solani; 250 ppm): 0%
25 | COc1cc(F)c(Br)c(-c2nn(C)c(=O)c(OC)c2-c2ccc(F)cc2Cl)c1 [Compound 165] | 95 | 100 | 92 | 99 | 100 | 100 | –
26 | COc1ccc(Cl)c(-c2nn(C)c(=O)c(OC)c2-c2c(F)cccc2F)c1 [Compound 50] | 96 | 98 | 36 | 99 | 100 | 100 | –

From US20230095836A1, “SUBSTITUTED 5,6-DIPHENYL-3(2H)-PYRIDAZINONES FOR USE AS FUNGICIDES” (FMC Corporation, priority 2020, published 2023)
